One experiment has as its target T1, 5-HT1A receptors (Rattus norvegicus, UniProt P19327).
T1 sequence (P19327 1-422): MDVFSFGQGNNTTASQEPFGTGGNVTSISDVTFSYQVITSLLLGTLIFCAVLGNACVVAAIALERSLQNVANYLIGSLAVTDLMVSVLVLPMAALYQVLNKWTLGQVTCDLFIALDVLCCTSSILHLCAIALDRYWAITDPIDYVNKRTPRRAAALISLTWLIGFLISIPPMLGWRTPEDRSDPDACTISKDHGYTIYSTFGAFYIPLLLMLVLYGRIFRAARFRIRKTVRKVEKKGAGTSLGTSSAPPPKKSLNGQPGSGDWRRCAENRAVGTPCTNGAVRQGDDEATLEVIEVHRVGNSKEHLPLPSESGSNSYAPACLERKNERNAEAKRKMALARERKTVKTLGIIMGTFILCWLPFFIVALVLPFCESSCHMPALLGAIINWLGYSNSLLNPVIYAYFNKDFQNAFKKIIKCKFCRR
The experiment in a line: inhibition of [3H]8-OH-DPAT binding to 5-HT1A receptors in vitro. As to conditions: for Ki: [3H]8-OH-DPAT 2 nM, 25° C., 30 min; for inhibition at 1 µM: read-out: % displacement at 10^-6 M, 5-HT1A. The arrangement: species or system rat (male Sprague-Dawley, hippocampal tissue).

The target of another experiment is D2 dopamine receptors (Rattus norvegicus, UniProt P61169). The experiment in a line: inhibition of tritiated (S)-sulpiride binding to D2 dopamine receptors in vitro. The arrangement: species or system rat (male Charles River CD, striatal tissue). The conditions noted are these: rat striatum, tritiated (S)-sulpiride 1 nM, 4° C., 40 min.
Another experiment concerns the target T2, α2D-adrenoceptors (Rattus norvegicus, UniProt P22909).
T2 sequence (P22909 1-465): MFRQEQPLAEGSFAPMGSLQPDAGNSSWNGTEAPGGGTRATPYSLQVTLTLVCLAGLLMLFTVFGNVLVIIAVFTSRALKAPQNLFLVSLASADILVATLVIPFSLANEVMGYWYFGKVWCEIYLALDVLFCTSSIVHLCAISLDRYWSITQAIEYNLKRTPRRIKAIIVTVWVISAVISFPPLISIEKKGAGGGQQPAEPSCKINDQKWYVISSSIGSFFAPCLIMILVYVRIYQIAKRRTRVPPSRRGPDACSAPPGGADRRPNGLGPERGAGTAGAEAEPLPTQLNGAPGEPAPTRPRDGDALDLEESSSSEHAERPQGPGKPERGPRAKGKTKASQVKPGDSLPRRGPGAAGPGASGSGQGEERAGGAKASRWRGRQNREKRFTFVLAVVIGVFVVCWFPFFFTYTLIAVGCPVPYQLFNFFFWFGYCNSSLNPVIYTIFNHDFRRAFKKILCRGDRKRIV
In words: inhibition of tritiated idazoxan binding to α2D-adrenoceptors in vitro. The conditions noted are these: rat frontal cortex; for inhibition at 1 µM: 10^-6 M, [3H]idazoxan, read-out: % displacement at 10^-6 M, α2D; for Ki: [3H]idazoxan 1 nM, 0° C., 75 min. The arrangement: species or system rat (male Charles River CD, frontal cortical tissue).

A further experiment deals with α1-adrenoceptors. In words: inhibition of 7-methoxy-[3H]prazosin binding to α1-adrenoceptors in vitro. The arrangement: species or system rat (male Charles River CD, whole cortical tissue). As to conditions: rat whole cortex, 30 min; for Ki: 7-methoxy-[3H]prazosin 0.1 nM, 30° C.; for % displacement at 10^-6 M, α1: 7-methoxy-[3H]prazosin, 1 µM. Here is the method: Whole cortical tissue from the brains of male Charles River CD rats weighing between 150-250 g were homogenised in ice-cold 50 mM Tris-HCl, pH 7.6 (at 25° C.; 1:40 w/v) and centrifuged at 1000 g at 4° C. for 10 minutes. The supernatant was centrifuged at 30,000 g at 4° C. for 10 minutes. The pellet was rehomogenised in 50 mM Tris-HCl, pH 7.6 (1:40 w/v) and centrifuged at 30,000 g at 4° C. for 10 minutes. The final pellet was resuspended in 50 mM Tris-HCl, pH 7.6 (equivalent to 12.5 mg wet weight of tissue/ml) and used immediately in the binding assay. Aliquots (400 μl; equivalent to 5 mg wet weight of tissue/tube) of this suspension were added to tubes containing the ligand (50 μl; 0.1 nM) and distilled water (50 μl; total binding) or phentolamine (50 μl; 5 μM; non-specific binding) or test compound (50 μl; at a single concentration of 10^-6 M or at 10 concentrations ranging from 10^-11 -10^-3 M). The ligand was 7-methoxy-[^3 H]prazosin and the mixture was incubated at 30° C. for 30 minutes before the incubation was terminated by rapid filtration. The filters were washed with ice-cold Tris-HCl buffer and dried. The filters were punched out into vials, scintillation fluid added and radioactivity determined by liquid scintillation counting. The percentage displacement of specific binding of the tritiated ligand was calculated for the single concentration (10^-6 M) of test compound. […] The concentration which gave 50% inhibition of specific binding (IC50) was obtained from the curve. The inhibition coefficient Ki was then calculated using the formula [formula] in which [ligand] is the concentration of the tritiated ligand used and KD is the equilibrium dissociation constant for the ligand.

Where [1] appears, read: 10^-6 M, rat hippocampus, [3H]8-OH-DPAT.

Where a name gives a salt, the structure may show the parent alone. Read-outs that look alike come from different tables or passages of the source. Bounds are passed on as bounds.

The values below come from patent US6114334A, “Piperazine derivatives as therapeutic agents” (Knoll Aktiengesellschaft, priority 1995, dated 2000).

Sequence of D2 dopamine receptors (P61169 whole entry): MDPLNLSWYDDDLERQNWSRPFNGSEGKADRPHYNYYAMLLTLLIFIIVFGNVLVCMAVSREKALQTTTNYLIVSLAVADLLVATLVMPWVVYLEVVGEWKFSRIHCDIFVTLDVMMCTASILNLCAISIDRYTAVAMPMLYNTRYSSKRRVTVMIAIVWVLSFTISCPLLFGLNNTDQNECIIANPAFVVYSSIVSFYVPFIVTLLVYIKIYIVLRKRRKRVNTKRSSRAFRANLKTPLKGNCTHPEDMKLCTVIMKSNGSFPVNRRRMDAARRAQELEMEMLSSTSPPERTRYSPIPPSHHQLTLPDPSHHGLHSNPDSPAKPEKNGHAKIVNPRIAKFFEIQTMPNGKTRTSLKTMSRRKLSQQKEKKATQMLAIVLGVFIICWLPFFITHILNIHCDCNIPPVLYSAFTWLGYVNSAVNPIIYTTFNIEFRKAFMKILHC

One may read the Ki as the dissociation constant of the complex between target and ligand, obtained from inhibition or displacement. A higher Ki goes with lower affinity. For the compound `C=CCn1c(-c2cccnc2)nn(CN2CCN(c3ncccn3)CC2)c1=S` [Example 57, 4-Allyl-5-(3-pyridyl)-2-[4-(pyrimidin-2-yl)piperazin-1-ylmethyl]-1,2,4-triazole-3(2H,4H)-thione], the inhibitory constant (Ki) at 5-HT1A receptors (rat hippocampus), at D2 dopamine receptors and on α1-adrenoceptors was greater than 500 nM throughout. Besides, on α2D-adrenoceptors, the inhibition at 1 µM was 95%.
For the compound `C=CCn1c(-c2ccncc2)nn(CN2CCN(c3ccccc3OC)CC2)c1=S` [Example 49, 4-Allyl-2-[4-(2-methoxyphenyl)piperazin-1-ylmethyl]-5-(4-pyridyl)-1,2,4-triazole-3(2H,4H)-thione], the inhibitory constant (Ki) on 5-HT1A receptors (rat hippocampus) was 123 nM; on D2 dopamine receptors, 121 nM; on α2D-adrenoceptors it was 146 nM; at α1-adrenoceptors, greater than 500 nM.
Take `C=CCn1c(-c2cccnc2)nn(CCN2CCN(c3ccccc3OC)CC2)c1=O.Cl.Cl` [Example 67, 4-Allyl-2-{2-[4-(2-methoxyphenyl)piperazin-1-yl]ethyl}-5-(3-pyridyl)-1,2,4-triazol-3(2H,4H)-one dihydrochloride]: the inhibition at 1 µM on 5-HT1A receptors turned out to be 52%. Further, the Ki at D2 dopamine receptors and at α2D-adrenoceptors was greater than 500 nM throughout. Besides, in the experiment on α1-adrenoceptors, the “% displacement at 10^-6 M, α1” value was 78%.
As to `CCCn1c(-c2ccncc2)nn(CN2CCN(c3ccccc3OC)CC2)c1=S` [Example 53, 2-[4-(2-Methoxyphenyl)piperazin-1-ylmethyl]-4-propyl-5-(4-pyridyl)-1,2,4-triazole-3(2H,4H)-thione], the Ki on 5-HT1A receptors (rat hippocampus) was 117 nM; on D2 dopamine receptors, 274 nM; at α2D-adrenoceptors, 150 nM; at α1-adrenoceptors, greater than 500 nM.
Taken in the same sequence, the figures for `COc1ccccc1N1CCN(Cc2c(N)n(C)n(-c3ccccc3)c2=O)CC1` [Example 1, 3-amino-4-[4-(2-methoxyphenyl)piperazin-1-ylmethyl]-2-methyl-1-phenyl-3-pyrazolin-5-one] were 169 nM, 192 nM, 130 nM and 23 nM.
Taken in the same sequence, the figures for `C=CCn1c(-c2ccccc2)nn(CN2CCN(c3ccccc3OC)CC2)c1=S` [Example 52, 4-Allyl-2-[4-(2-methoxyphenyl)piperazin-1-ylmethyl]-5-phenyl-1,2,4-triazole-3(2H,4H)-thione] were 150 nM, 222 nM, 148 nM and greater than 500 nM.
Taken in the same sequence, the figures for `COc1ccccc1N1CCN(Cn2nc(-c3ccc(Cl)cc3)n(-c3cccnc3)c2=S)CC1` [Example 48, 5-(4-Chlorophenyl)-2-[4-(2-methoxyphenyl)piperazin-1-ylmethyl]-4-(3-pyridyl)-1,2,4-triazole-3(2H,4H)-thione] were 108 nM, 200 nM, 71 nM and 430 nM.
Take `C=CCn1c(-c2cccnc2)nn(CN2CCN(c3cccc4c3OCCO4)CC2)c1=S` [Example 45, 4-allyl-2-[4-(1,4-benzodioxan-5-yl)piperazin-1-ylmethyl]-5-(3-pyridyl)-1,2,4-triazole-3(2H,4H)-thione]: the Ki at 5-HT1A receptors (rat hippocampus) was 31 nM; at D2 dopamine receptors, 322 nM; at α2D-adrenoceptors it was 225 nM; at α1-adrenoceptors, greater than 500 nM.
Taken in the same sequence, the figures for `COc1ccccc1N1CCN(Cn2nc(C(F)(F)F)n(C)c2=S)CC1` [Example 54, 2-[4-(2-Methoxyphenyl)piperazin-1-ylmethyl]-4-methyl-5-(trifluoromethyl)-1,2,4-triazole-3(2H,4H)-thione] were 135 nM, 243 nM, 218 nM and 477 nM.
In the case of `Nc1c(CN2CCN(c3cccc(C(F)(F)F)c3)CC2)c(C2CC2)nn1-c1ccccc1` [Example 15, 5-Amino-3-cyclopropyl-1-phenyl-4-{4-[3-(trifluoromethyl)phenyl]piperazin-1-ylmethyl}pyrazole], the inhibition at 1 µM at 5-HT1A receptors (setting [1]) turned out to be 67%. Also, the results for the Ki on D2 dopamine receptors, at α2D-adrenoceptors and at α1-adrenoceptors were 337 nM, greater than 500 nM and greater than 500 nM, respectively.
In the case of `C=CCn1c(-c2ccccn2)nn(CN2CCN(c3ccccc3OC)CC2)c1=S` [Example 58, 4-Allyl-2-[4-(2-methoxyphenyl)piperazin-1-ylmethyl]-5-(2-pyridyl)-1,2,4-triazole-3(2H,4H)-thione], the inhibition constant (Ki) on 5-HT1A receptors (rat hippocampus) came to 126 nM; at D2 dopamine receptors it was 173 nM; on α2D-adrenoceptors, 104 nM; at α1-adrenoceptors it was 301 nM.
With `C=CCn1c(-c2ccccc2)nn(CCN2CCN(c3ccccc3OC)CC2)c1=O.O=C(O)/C=C/C(=O)O` [Example 68, 4-Allyl-2-{2-[4-(2-methoxyphenyl)piperazin-1-yl]ethyl}-5-phenyl-1,2,4-triazol-3(2H,4H)-one monofumarate], the inhibition at 1 µM on 5-HT1A receptors (setting [1]) was found to be 56%. Moreover, the Ki on D2 dopamine receptors and at α2D-adrenoceptors was greater than 500 nM in each case. The “% displacement at 10^-6 M, α1” value in the experiment on α1-adrenoceptors was determined as 67%.
Take `COCCCn1c(-c2ccncc2)nn(CN2CCN(c3ccccc3OC)CC2)c1=S` [Example 50, 2-[4-(2-Methoxyphenyl)piperazin-1-ylmethyl]-4-(3-methoxypropyl)-5-(4-pyridyl)-1,2,4-triazole-3(2H,4H)-thione]: the Ki on 5-HT1A receptors (rat hippocampus) was 170 nM; at D2 dopamine receptors, 192 nM; on α2D-adrenoceptors, 194 nM; at α1-adrenoceptors it was greater than 500 nM.
For the compound `C=CCn1c(-c2cccnc2)nn(CCN2CCN(c3cccc(C)c3C)CC2)c1=O` [Example 65, 4-Allyl-2-{2-[4-(2,3-dimethylphenyl)piperazin-1-yl]ethyl}-5-(3-pyridyl)-1,2,4-triazol-3(2H,4H)-one 2.8 hydrochloride], the inhibition at 1 µM on 5-HT1A receptors (setting [1]) is 63%. Further, the Ki on D2 dopamine receptors and at α2D-adrenoceptors was greater than 500 nM in each case. The “% displacement at 10^-6 M, α1” value with α1-adrenoceptors is on record as 56%.
Regarding `C=CCn1c(-c2ccc(Cl)cc2)nn(CN2CCN(c3ccccc3OC)CC2)c1=S` [Example 62, 4-Allyl-5-(4-chlorophenyl)-2-[4-(2-methoxyphenyl)piperazin-1-ylmethyl]-1,2,4-triazole-3(2H,4H)-thione], the values for the inhibition at 1 µM at 5-HT1A receptors (setting [1]) and on α2D-adrenoceptors were 77% and 68%, respectively. On D2 dopamine receptors, this compound returned a Ki of 201 nM. In the experiment on α1-adrenoceptors, the “% displacement at 10^-6 M, α1” value is on record as 59%.
`COc1ccccc1N1CCN(Cn2ncn(C)c2=S)CC1` [Example 55, 2-[4-(2-Methoxyphenyl)piperazin-1-ylmethyl]-4-methyl-1,2,4-triazole-3(2H,4H)-thione]: the Ki at 5-HT1A receptors (rat hippocampus) came out at 108 nM; at D2 dopamine receptors, 73 nM; on α2D-adrenoceptors, 194 nM; at α1-adrenoceptors, 358 nM.
Consider `C=CCn1c(-c2cccnc2)nn(CN2CCN(c3ccccc3OC)CC2)c1=O` [Example 63, 4-Allyl-2-[4-(2-methoxyphenyl)piperazin-1-ylmethyl]-5-(3-pyridyl)-1,2,4-triazol-3(2H,4H)-one], for which the results for the inhibition at 1 µM on 5-HT1A receptors (setting [1]) and on α2D-adrenoceptors were 74% and 66%, respectively. Also, the Ki on D2 dopamine receptors was 193 nM; on α1-adrenoceptors, greater than 500 nM.
